According to ChEMBL document CHEMBL4007475, “Green synthesis of novel spiro-indenoquinoxaline derivatives and their cholinesterases inhibition activity” (Bioorg Med Chem, 2017):

What was measured:
[1] = species: Homo sapiens; assay: Selectivity index, ratio of IC50 for butyrylcholinesterase (unknown origin) to IC50 for acetylcholinesterase (unknown origin)
[2] = species: Homo sapiens; assay: Selectivity index, ratio of IC50 for acetylcholinesterase (unknown origin) to IC50 for butyrylcholinesterase (unknown origin)
[3] = test system: HepG2; assay: Cytotoxicity against human HepG2 cells after 48 hrs by MTT assay; format: cell-based; conditions: HepG2, 48 h
[4] = molecular target: Cholinesterase (Homo sapiens, UniProt P06276); assay: Inhibition of butyrylcholinesterase (unknown origin) using acetylthiocholine as substrate preincubated for 20 mins followed by substrate addition by Ellmans method
Cholinesterase, sequence (P06276 whole entry): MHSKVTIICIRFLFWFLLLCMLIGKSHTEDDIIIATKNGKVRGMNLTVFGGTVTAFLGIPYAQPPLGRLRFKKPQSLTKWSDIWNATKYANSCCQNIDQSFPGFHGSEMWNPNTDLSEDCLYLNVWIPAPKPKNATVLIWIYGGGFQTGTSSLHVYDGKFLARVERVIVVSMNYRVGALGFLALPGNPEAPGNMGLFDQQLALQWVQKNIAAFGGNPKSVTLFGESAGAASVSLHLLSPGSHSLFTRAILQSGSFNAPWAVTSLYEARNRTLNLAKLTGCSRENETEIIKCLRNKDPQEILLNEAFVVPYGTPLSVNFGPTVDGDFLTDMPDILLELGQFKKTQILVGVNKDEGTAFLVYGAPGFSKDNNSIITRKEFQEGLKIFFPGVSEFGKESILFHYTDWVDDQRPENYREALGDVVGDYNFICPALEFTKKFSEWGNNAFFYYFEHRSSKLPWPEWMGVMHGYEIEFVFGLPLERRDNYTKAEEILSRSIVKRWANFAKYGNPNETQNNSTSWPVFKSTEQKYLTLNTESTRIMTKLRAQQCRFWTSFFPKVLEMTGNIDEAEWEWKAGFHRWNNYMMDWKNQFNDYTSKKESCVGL

[5] = molecular target: Acetylcholinesterase (Homo sapiens, UniProt P22303); assay: Inhibition of acetylcholinesterase (unknown origin) using acetylthiocholine as substrate preincubated for 20 mins followed by substrate addition by Ellmans method
Acetylcholinesterase, sequence (P22303 whole entry): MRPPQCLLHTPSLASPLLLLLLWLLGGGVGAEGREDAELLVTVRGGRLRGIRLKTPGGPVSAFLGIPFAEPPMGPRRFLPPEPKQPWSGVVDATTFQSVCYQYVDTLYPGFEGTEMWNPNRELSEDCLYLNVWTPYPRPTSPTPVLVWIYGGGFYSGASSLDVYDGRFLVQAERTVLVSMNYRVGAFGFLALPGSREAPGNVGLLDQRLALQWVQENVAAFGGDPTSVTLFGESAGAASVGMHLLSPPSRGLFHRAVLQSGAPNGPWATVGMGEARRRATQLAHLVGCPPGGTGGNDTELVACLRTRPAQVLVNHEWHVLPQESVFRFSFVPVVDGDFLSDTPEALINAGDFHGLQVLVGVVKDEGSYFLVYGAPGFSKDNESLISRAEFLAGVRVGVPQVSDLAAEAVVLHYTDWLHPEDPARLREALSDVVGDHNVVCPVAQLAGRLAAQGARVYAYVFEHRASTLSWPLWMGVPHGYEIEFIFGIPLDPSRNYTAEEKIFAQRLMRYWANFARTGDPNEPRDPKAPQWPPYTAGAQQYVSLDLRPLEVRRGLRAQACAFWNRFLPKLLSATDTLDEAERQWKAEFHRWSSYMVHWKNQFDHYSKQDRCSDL

[6] = species: Homo sapiens; assay: Selectivity for acetylcholinesterase (unknown origin) over butyrylcholinesterase (unknown origin)

Compound: CC1(C)CNC2=C([N+](=O)[O-])C3(C(C#N)=C(N)N2C1)c1ccccc1-c1nc2ccc([N+](=O)[O-])cc2nc13 (stereo unspecified)
- Ratio IC50 [1]: 2.81
- Ratio IC50 [2]: 0.356
- IC50 [3]: 169 µM
- IC50 [4]: 10.1 µM
- IC50 [5]: 3.6 µM

Compound: Cc1cc2nc3c(nc2cc1C)C1(C(C#N)=C(N)N(Cc2ccccc2)C(NCc2ccccc2)=C1[N+](=O)[O-])c1ccccc1-3 (stereo unspecified)
- Ratio IC50 [1]: 1.53
- Ratio IC50 [2]: 0.651
- IC50 [3]: 174 µM
- IC50 [4]: 8.9 µM
- IC50 [5]: 5.8 µM

Compound: Cc1cc2nc3c(nc2cc1C)C1(C(C#N)=C(N)N2CCCNC2=C1[N+](=O)[O-])c1ccccc1-3 (stereo unspecified)
- Ratio IC50 [1]: 1.67
- Ratio IC50 [2]: 0.6
- IC50 [3]: 171 µM
- IC50 [4]: 9.5 µM
- IC50 [5]: 5.7 µM

Compound: CC1(C)CNC2=C([N+](=O)[O-])C3(C(C#N)=C(N)N2C1)c1ccccc1-c1nc2ccccc2nc13 (stereo unspecified)
- Ratio IC50 [1]: 2.28
- Ratio IC50 [2]: 0.438
- IC50 [3]: 184 µM
- IC50 [4]: 9.8 µM
- IC50 [5]: 4.3 µM

Compound: N#CC1=C(N)N2CCNC2=C([N+](=O)[O-])C12c1ccccc1-c1nc3ccccc3nc12 (stereo unspecified)
- Ratio IC50 [1]: 1.31
- Ratio IC50 [2]: 0.761
- IC50 [3]: 194 µM
- IC50 [4]: 8.4 µM
- IC50 [5]: 6.4 µM

Compound: Cc1cc2nc3c(nc2cc1C)C1(C(C#N)=C(N)N2CC(C)(C)CNC2=C1[N+](=O)[O-])c1ccccc1-3 (stereo unspecified)
- Ratio IC50 [1]: 2.2
- Ratio IC50 [2]: 0.454
- IC50 [3]: 180 µM
- IC50 [4]: 8.8 µM
- IC50 [5]: 4 µM

Compound: Cc1cc2nc3c(nc2cc1C)C1(C(C#N)=C(N)N2CCNC2=C1[N+](=O)[O-])c1ccccc1-3 (stereo unspecified)
- Ratio IC50 [1]: 1.11
- Ratio IC50 [2]: 0.904
- IC50 [3]: 176 µM
- IC50 [4]: 7.3 µM
- IC50 [5]: 6.6 µM

Compound: N#CC1=C(N)N2CCCNC2=C([N+](=O)[O-])C12c1ccccc1-c1nc3ccccc3nc12 (stereo unspecified)
- Ratio IC50 [1]: 2.43
- Ratio IC50 [2]: 0.411
- IC50 [3]: 174 µM
- IC50 [4]: 10.2 µM
- IC50 [5]: 4.2 µM

Compound: N#CC1=C(N)N(Cc2ccccc2)C(NCc2ccccc2)=C([N+](=O)[O-])C12c1ccccc1-c1nc3ccc([N+](=O)[O-])cc3nc12 (stereo unspecified)
- Ratio IC50 [1]: 2.07
- Ratio IC50 [2]: 0.483
- IC50 [3]: 167 µM
- IC50 [4]: 9.1 µM
- IC50 [5]: 4.4 µM

Compound: N#CC1=C(N)N2CCNC2=C([N+](=O)[O-])C12c1ccccc1-c1nc3ccc([N+](=O)[O-])cc3nc12 (stereo unspecified)
- Ratio IC50 [1]: 1.48
- Ratio IC50 [2]: 0.677
- IC50 [3]: 174 µM
- IC50 [4]: 9.6 µM
- IC50 [5]: 6.5 µM

Compound: N#CC1=C(N)N2CCCNC2=C([N+](=O)[O-])C12c1ccccc1-c1nc3ccc([N+](=O)[O-])cc3nc12 (stereo unspecified)
- Ratio IC50 [1]: 2.49
- Ratio IC50 [2]: 0.402
- IC50 [3]: 161 µM
- IC50 [4]: 9.7 µM
- IC50 [5]: 3.9 µM

Compound: COc1cc2c(cc1OC)C(=O)C(CC1CCN(Cc3ccccc3)CC1)C2 (stereo unspecified)
- Selectivity ratio [6]: 10000

Compound: N#CC1=C(N)N(Cc2ccccc2)C(NCc2ccccc2)=C([N+](=O)[O-])C12c1ccccc1-c1nc3ccccc3nc12 (stereo unspecified)
- Ratio IC50 [1]: 1.62
- Ratio IC50 [2]: 0.616
- IC50 [3]: 190 µM
- IC50 [4]: 8.6 µM
- IC50 [5]: 5.3 µM
